Assay results as given in the supplement of paper PMC10307832.

Legend:
Test in all cases: relative viability (nuclei count vs DMSO), 5 days (fraction); higher = more cells survive
[1] = compound: CCC1=CN=CN=C1N2CCN(CC2)CC3=NC4=C(N3)C=C(C=C4)C(F)(F)F + CC(=O)c1c(C)c2cnc(Nc3ccc(N4CCNCC4)cn3)nc2n(C2CCCC2)c1=O [Palbociclib] (partner 0.5 µM)
Outline: (§1)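 Relative viability is defined as nuclei in treated wells over nuclei in vehicle wells. Duplicate plates were run and medians reported. Lung cancer cell lines in 1536-well plates were dosed by pin tool one day after seeding, with one drug or with a fixed anchor-drug dose plus five library-drug doses (not always all listed) in √10 steps, and nuclei were counted after 5 days.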

[2] = compound: CCC1=CN=CN=C1N2CCN(CC2)CC3=NC4=C(N3)C=C(C=C4)C(F)(F)F + CS(=O)(=O)N1CCN(Cc2cc3nc(-c4cccc5[nH]ncc45)nc(N4CCOCC4)c3s2)CC1 [Pictilisib] (partner 1 µM)
Outline: as §1

[3] = compound: CCn1c(-c2nonc2N)nc2cnc(Oc3cccc(NC(=O)c4ccc(OCCN5CCOCC5)cc4)c3)cc21 + CS(=O)(=O)CCNCc1ccc(-c2ccc3ncnc(Nc4ccc(OCc5cccc(F)c5)c(Cl)c4)c3c2)o1 [Lapatinib] (partner 2 µM)
Outline: as §1

[4] = compound: CCn1c(-c2nonc2N)nc2cnc(Oc3cccc(NC(=O)c4ccc(OCCN5CCOCC5)cc4)c3)cc21 + O=C(c1cc(Cc2n[nH]c(=O)c3ccccc23)ccc1F)N1CCN(C(=O)C2CC2)CC1 [Olaparib] (partner 8 µM)
Outline: as §1

| Cell Line | relative viability ([1]; first compound 0.04 µM) | relative viability ([1]; first compound 0.1265 µM) | relative viability ([1]; first compound 0.4 µM) | relative viability ([1]; first compound 1.265 µM) | relative viability ([1]; first compound 4 µM) | relative viability ([2]; first compound 0.04 µM) | relative viability ([2]; first compound 0.1265 µM) | relative viability ([2]; first compound 0.4 µM) | relative viability ([2]; first compound 4 µM) | relative viability ([3]; first compound 0.04 µM) | relative viability ([3]; first compound 0.1265 µM) | relative viability ([3]; first compound 0.4 µM) | relative viability ([3]; first compound 1.265 µM) | relative viability ([3]; first compound 4 µM) | relative viability ([4]; first compound 0.04 µM) | relative viability ([4]; first compound 0.1265 µM) | relative viability ([4]; first compound 0.4 µM) | relative viability ([4]; first compound 1.265 µM) | relative viability ([4]; first compound 4 µM) | relative viability ([2]; first compound 1.265 µM) |
| --- | --- | --- | --- | --- | --- | --- | --- | --- | --- | --- | --- | --- | --- | --- | --- | --- | --- | --- | --- | --- |
| NCI-H1734 | 0.33 | 0.362 | 0.344 | 0.291 | 0.317 | 0.387 | 0.449 | 0.431 | 0.473 | 1.03 | 0.93 | 0.6 | 0.38 | 0.403 | 0.654 | 0.583 | 0.557 | 0.442 | 0.328 |  |
| NCI-H1650 | 0.325 | 0.311 | 0.348 | 0.223 | 0.39 | 0.525 | 0.586 | 0.558 | 0.818 | 1.04 | 0.747 | 0.74 | 0.671 | 0.694 | 0.74 | 0.849 | 0.744 | 0.696 | 0.715 | 0.306 |
| NCI-H1355 | 0.412 | 0.387 | 0.407 | 0.373 | 0.368 | 0.541 | 0.414 | 0.361 | 0.453 | 1.07 | 0.978 | 0.712 | 0.62 | 0.597 | 0.731 | 0.832 | 0.739 | 0.649 | 0.61 | 0.293 |
| NCI-H1915 | 0.478 | 0.525 | 0.515 | 0.451 | 0.522 | 0.916 | 0.899 | 0.931 | 0.963 | 1.11 | 0.949 | 0.956 | 0.611 | 0.387 | 0.252 | 0.265 | 0.251 | 0.185 | 0.167 | 0.687 |
| BEN | 0.454 | 0.487 | 0.469 | 0.437 | 0.464 | 0.593 | 0.557 | 0.503 | 0.331 | 0.627 | 0.695 | 0.348 | 0.279 | 0.317 | 1.29 | 0.894 | 0.714 | 0.368 | 0.415 | 0.343 |
| NCI-H322M | 0.455 | 0.452 | 0.514 | 0.489 | 0.521 | 0.581 | 0.484 | 0.507 | 0.524 | 0.572 | 0.659 | 0.437 | 0.876 | 0.783 | 1.14 | 1.01 | 0.935 | 0.661 | 0.702 | 0.381 |
| SK-MES-1 | 0.322 | 0.327 | 0.278 | 0.32 | 0.318 | 0.431 | 0.354 | 0.346 | 0.38 | 0.493 | 0.434 | 0.404 | 0.453 | 0.401 | 0.772 | 0.721 | 0.656 | 0.568 | 0.483 | 0.282 |
| HOP-62 | 0.475 | 0.451 | 0.414 | 0.438 | 0.413 | 0.661 | 0.669 | 0.705 | 0.76 | 1.16 | 1.02 | 0.996 | 0.866 | 0.461 | 0.679 | 0.379 | 0.372 |  | 0.351 | 0.642 |
